Assays:
[1] = system: H460T CD24−/lowCD44+ and CD24highCD44+ cells; experiment: Differential drug response of sorted H460T populations; type: cell-based, human
Source text: H460 cells were obtained from the American Type Culture Collection (ATCC) in Manassas, Va., United States of America. The H460 cell line was derived from the pleural fluid of a patient with large cell cancer of the lung (Gazdar et al., Science, 1989, 246: 491494). HCC2429 cells were obtained from J. Minna. See Haruki et al., J. Med. Genet., 2005, 42(7):558-64. […] Higher-passage cells are referred to as H460T to distinguish them from the low-passage H460 that were originally obtained from ATCC. All cells were incubated at 37° Celsius with 5.0% carbon dioxide (CO2). H460T cells were cultured in RPMI-1640 (GIBCO®, available from Invitrogen of Carlsbad, Calif., USA). See Moore et al., JAMA, 1967, 199: 519-524, 10% fetal bovine serum (FBS, GIBCO®, available from Invitrogen of Carlsbad, Calif., USA), 2 mM additional glutamine, 100 IU/mipenicillin, 100 μg/ml streptomycin, 1 mM sodium pyruvate, 0.1% sodium bicarbonate, 045% additional glucose, and 10 mM 4-(2-hydroxyethyl)-1-piperazineethanesulfonic acid (HEPES). HCC2429 cells were cultured in RPMI-1640, 10% FBS, 2 mM additional glutamine, 100 IU/ml penicillin, 100 μg/ml streptomycin. Karyotyping and short tandem repeat (STR) analysis of H460T confirmed its H460 origin, however the Y chromosome was absent in H460T cells and present in most H460 cells. […]

60274 xenografts = experiment: Tumor regression of NSCLC primary implant xenografts, line 60274; type: in vivo, mice; details: maximum tolerable dose
Experimental: Nude (for 37622) or nod-scid (for 60274) mice were injected subcutaneously between the shoulder blades with fragments of low-passage primary implants. When the tumors reached the mass of 0.2 to 0.5 g, the tumors were staged to ensure uniformity of the tumor mass between various treatment groups prior to the administration of therapy. Anti-5T4 huH8 antibody and anti-CD33 p67.6 antibody were conjugated to calicheamicin via an amide linker as described (Hamann et al., Bioconug. Chem., 2002, 13: 40-46). The “amide” linker restricts the release of calicheamicin to cells that internalize the antibody-drug conjugate (Hamann et al., Bioconug. Chem., 2002, 13: 40-46). […] Tumors were measured at least once a week and their mass was as volume=0.5×(tumor width^2)(tumor length). Mean tumor volume (±SEM) for each treatment group was calculated and compared to the vehicle-treated group for statistical significance using a one-sided t-test, with the error term for the t-test based on the pooled variance across all treatment groups. Tumor values for each treatment group were recorded up to 120 days after the initiation of treatment or until either tumor-bearing mice died or the tumors grew to 15% of the body weight at which time these mice were euthanized according to institutional regulations.

[2] = system: H460T CD24−/lowCD44+ and CD24highCD44+ cells; experiment: Four-day MTS cell viability assay on sorted cells; type: cell-based, human; details: 96 hours of drug exposure, FIG. 10A
Experimental: The CD24^−/lowCD44^+ population was more sensitive to an anti-5T4 antibody-drug conjugate than the CD24^highCD44^+ population in an cell viability assay and a colony growth assay. For each assay, antibody-calicheamicin AcBut-linked (AcBut-AcBut-[4-(4-acetylphenoxy) butanoic acid]) conjugates were prepared as described (Hamann et al., Bioconjug. Chem., 2002, 13: 47-58). The effect of anti-5T4 huH8 antibody-drug conjugate or anti-CD22 antibody-drug conjugate on sorted cells was assessed using a cellular viability indicator ((3-(4,5-dimethylthiazol-2-yl)-5([…])-2-(4-sulfophenyl)-2H-tetrazolium (MTS) (Promega of Madison, Wis., USA) to determine the number of surviving cells following exposure to the drug treatment. Cells were sorted 18 hours prior to start of assay. Cells were seeded in 96-well microtiter plates at a density of 10000 cells per well and exposed to various concentrations of the drug. Following determination of the number of viable cells surviving 96 hours of drug exposure, the IC50 of each treatment was calculated based on the logistic regression parameters derived from the dose-response curves. IC50 values were calculated by logistic non-linear regression and are reported as the calicheamicin dimethyl hydrazide (CalichDMH) concentration from each treatment group that causes 50% loss of cell viability.

[3] = system: H460T CD24−/lowCD44+ and CD24highCD44+ cells; experiment: Colony formation (clonogenic) assay on sorted cells; type: cell-based, human; details: 72 hours drug exposure, 200 cells replated, colonies after 8 days; FIG. 10B
Experimental: To perform a colony formation assay, cells were seeded in 24 well plate at a density of 5,000 cells per well. Twenty-four hours after seeding the cells were exposed to various concentrations of (0.000097, 0.000390, 0.00156, 0.00625, 0.025, 0.1, 0.4 ng calicheamicin equivalents/ml) of anti-5T4 H8-AcBut conjugate, anti-CD22 AcBut conjugate, or calicheamicin alone. Seventy-two hours after the drug exposure, cells were trypsinized, counted and 200 cells were plated in 6 well plates. After 8 days, the colonies were fixed and stained with methylene blue. The number of colonies per well was counted using a Stereoscope.

5T4 = experiment: Anti-5T4 immunoblot of sorted cells treated with all-trans retinoic acid; type: cell-based, human; details: CD24−/lowCD44+ cells; 10 μM; 72 hours; 0.5% FBS medium; FIG. 6B
Experimental: To determine 5T4 expression under conditions of growth and differentiation, cells were harvested at several time points, and protein extracts were subjected to immunoblot analysis. Cells were washed with PBS and lysed in 0.5% v/v NP40 in 25 mM Tris-buffered saline pH 7.4 (TBS). After protein estimation (MICROBCA™ Protein Assay Kit, Pierce of Rockford, Ill., USA), the lysates were mixed with non-reducing Laemmli sample buffer (Biorad of Hercules, Calif., USA) and 10 μg samples were loaded in each well of a non-reducing 4-20% polyacrylamide gradient gel (NOVEX®, available from Invitrogen of Carlsbad, Calif., USA). The samples were run for two to three hours at 125 volts and transferred to a PVDF (polyvinylidene fluoride) membrane by means of a Novex® electrophoresis transfer system. The membrane was blocked overnight with 5% milk in Tris-buffered saline Tween-20 (TBST) with 1% goat serum, probed with anti-5T4 antibody H8 at 1 μg/ml in 5% milk in TBST, washed and probed with HRP conjugated goat anti-mulgG at 1:5,000 dilution. The ECL detection system was used (Amersham of Burlington, Mass., USA).
To further assess 5T4 expression in tumor cell lines, sorted cells were treated with all-trans retinoic acid to induce differentiation and then subjected to immunoblot analysis. […]

Molecule: CC[C@@]1(O)C(=O)OCc2c1cc1n(c2=O)Cc2cc3ccccc3nc2-1 [camptothecin]
- response of CD24−/lowCD44+ versus CD24highCD44+ populations [1]: responded equally

Molecule: N.N.[Cl][Pt][Cl] [cisplatin]
- tumor size of 60274 xenografts (60274 xenografts; FIG. 12C): reduced tumor size transiently
- regrowth of 60274 tumors (60274 xenografts; after completion of the dosing regimen): quickly regrew

Molecule: calicheamicin
- sensitivity of CD24−/lowCD44+ cells versus CD24highCD44+ cells (IC50 as CalichDMH concentration) [2]: No difference between the two populations
- sensitivity of CD24−/lowCD44+ cells versus CD24highCD44+ cells (number of colonies) [3]: No difference between the two populations

Molecule: CC1=C(/C=C/C(C)=C/C=C/C(C)=C/C(=O)O)C(C)(C)CCC1 [all-trans retinoic acid]
- 5T4 expression (immunoblot) (5T4): dramatically reduced

Molecule: O=c1[nH]cc(F)c(=O)[nH]1 [5-fluoruracil]
- response of CD24−/lowCD44+ versus CD24highCD44+ populations [1]: responded equally

Source: patent publication US9340774B2, “Tumor-initiating cells and methods for using same” (Wyeth LLC, priority 2009, dated 2016)
